Experimental data from patent publication US6353019B1, “Macrocyclic lactones, compositions, and methods of use” (United States of America as represented by the Department …, priority 1997, dated 2002).

Columns and labels:
EKVX = test: NCI 60 cell-line screen, EKVX (Lung); format: cell-based, human; conditions: averaged, quadruplicate testing, 48 h, SRB
Method: (§1) The NCI screen consists of a panel of 60 different human tumor cell lines against which compounds are tested over a defined range of concentrations to determine the relative degree of growth inhibition or cytotoxicity against each cell line. The design and operation of the screen is such that for each compound tested, both the absolute and relative sensitivities of individual cell lines comprising the screen are sufficiently reproducible that a characteristic profile or “fingerprint” of cellular response is generated. Compounds which are active in the NCI screen show pronounced differential tumor growth-inhibitory and/or cytotoxic effects to the diverse cell lines comprising the 60 cell-line panel. The degree of differential response between the most and least sensitive lines typically may be relatively small (e.g., 2- to 10-fold), or occasionally as great as 3-4 orders of magnitude. […]
(§2) In the screening assay, each agent is tested over a broad concentration range against every cell line in the panel. […] Test compounds are evaluated at five 10-fold dilutions. […] Optical densities are measured on automated plate readers, followed by computerized data acquisition, processing, storage, and availability for display and analysis. […]

SW-620 = test: NCI 60 cell-line screen, SW-620 (Colon); format: cell-based, human; conditions: averaged, quadruplicate testing, 48 h, SRB
Method: as §1, §2

NCI-H522 = test: NCI 60 cell-line screen, NCI-H522 (Lung); format: cell-based, human; conditions: averaged, quadruplicate testing, 48 h, SRB
Method: as §1, §2

SF-295 = test: NCI 60 cell-line screen, SF-295 (Brain); format: cell-based, human; conditions: averaged, quadruplicate testing, 48 h, SRB
Method: as §1, §2

SK-MEL-2 = test: NCI 60 cell-line screen, SK-MEL-2 (Melanoma); format: cell-based, human; conditions: averaged, quadruplicate testing, 48 h, SRB
Method: as §1, §2

SF-539 = test: NCI 60 cell-line screen, SF-539 (Brain); format: cell-based, human; conditions: averaged, quadruplicate testing, 48 h, SRB
Method: as §1, §2

786-0 = test: NCI 60 cell-line screen, 786-0 (Kidney); format: cell-based, human; conditions: averaged, quadruplicate testing, 48 h, SRB
Method: as §1, §2

HOP-92 = test: NCI 60 cell-line screen, HOP-92 (Lung); format: cell-based, human; conditions: averaged, quadruplicate testing, 48 h, SRB
Method: as §1, §2

COLO 205 = test: NCI 60 cell-line screen, COLO 205 (Colon); format: cell-based, human; conditions: averaged, quadruplicate testing, 48 h, SRB
Method: as §1, §2

SF-268 = test: NCI 60 cell-line screen, SF-268 (Brain); format: cell-based, human; conditions: averaged, quadruplicate testing, 48 h, SRB
Method: as §1, §2

M14 = test: NCI 60 cell-line screen, M14 (Melanoma); format: cell-based, human; conditions: averaged, quadruplicate testing, 48 h, SRB
Method: as §1, §2

NCI-H226 = test: NCI 60 cell-line screen, NCI-H226 (Lung); format: cell-based, human; conditions: averaged, quadruplicate testing, 48 h, SRB
Method: as §1, §2

NCI-H460 = test: NCI 60 cell-line screen, NCI-H460 (Lung); format: cell-based, human; conditions: averaged, quadruplicate testing, 48 h, SRB
Method: as §1, §2

SNB-19 = test: NCI 60 cell-line screen, SNB-19 (Brain); format: cell-based, human; conditions: averaged, quadruplicate testing, 48 h, SRB
Method: as §1, §2

BT-549 = test: NCI 60 cell-line screen, BT-549 (Breast); format: cell-based, human; conditions: averaged, quadruplicate testing, 48 h, SRB
Method: as §1, §2

IGROVI = test: NCI 60 cell-line screen, IGROVI (Ovary); format: cell-based, human; conditions: averaged, quadruplicate testing, 48 h, SRB
Method: as §1, §2

A549/ATCC = test: NCI 60 cell-line screen, A549/ATCC (Lung); format: cell-based, human; conditions: averaged, quadruplicate testing, 48 h, SRB
Method: as §1, §2

U251 = test: NCI 60 cell-line screen, U251 (Brain); format: cell-based, human; conditions: averaged, quadruplicate testing, 48 h, SRB
Method: as §1, §2

PC-3 = test: NCI 60 cell-line screen, PC-3 (Prostate); format: cell-based, human; conditions: averaged, quadruplicate testing, 48 h, SRB
Method: as §1, §2

MCF-7-ADR-RES = test: NCI 60 cell-line screen, MCF-7-ADR-RES (Breast); format: cell-based, human; conditions: averaged, quadruplicate testing, 48 h, SRB
Method: as §1, §2

LOX-IMVI = test: NCI 60 cell-line screen, LOX-IMVI (Melanoma); format: cell-based, human; conditions: averaged, quadruplicate testing, 48 h, SRB
Method: as §1, §2

[1] = tested on: panel of 60 different human tumor cell lines; test: NCI 60 cell-line human tumor screen, whole panel; format: cell-based
Method: as §1, §2
Three additional numbers are printed at the base of each of the three respective mean-graphs. […] The MG-MID is the calculated mean panel GI50, TGI, or LC50. […]

HCC-2998 = test: NCI 60 cell-line screen, HCC-2998 (Colon); format: cell-based, human; conditions: averaged, quadruplicate testing, 48 h, SRB
Method: as §1, §2

K-562 = test: NCI 60 cell-line screen, K-562 (Leukemia); format: cell-based, human; conditions: averaged, quadruplicate testing, 48 h, SRB
Method: as §1, §2

ACHN = test: NCI 60 cell-line screen, ACHN (Kidney); format: cell-based, human; conditions: averaged, quadruplicate testing, 48 h, SRB
Method: as §1, §2

HS-578T = test: NCI 60 cell-line screen, HS-578T (Breast); format: cell-based, human; conditions: averaged, quadruplicate testing, 48 h, SRB
Method: as §1, §2

CCRF-CEM = test: NCI 60 cell-line screen, CCRF-CEM (Leukemia); format: cell-based, human; conditions: averaged, quadruplicate testing, 48 h, SRB
Method: as §1, §2

RPMI-8226 = test: NCI 60 cell-line screen, RPMI-8226 (Leukemia); format: cell-based, human; conditions: averaged, quadruplicate testing, 48 h, SRB
Method: as §1, §2

KM12 = test: NCI 60 cell-line screen, KM12 (Colon); format: cell-based, human; conditions: averaged, quadruplicate testing, 48 h, SRB
Method: as §1, §2

HT29 = test: NCI 60 cell-line screen, HT29 (Colon); format: cell-based, human; conditions: averaged, quadruplicate testing, 48 h, SRB
Method: as §1, §2

With salicylihalamide A the “negative log10 GI50” value (EKVX) was 7.52, the “negative log10 GI50” value (SW-620) was 7.54 and the “negative log10 GI50” value (NCI-H522) was 7.26. The “negative log10 GI50” value (SF-295) was 8.96, the “negative log10 GI50” value (SK-MEL-2) was 7.47 and the “negative log10 GI50” value (SF-539) was 7.89. For the same substance, the “negative log10 GI50” value (786-0) was 7.92, the “negative log10 GI50” value (HOP-92) was 7.77 and the “negative log10 GI50” value (COLO 205) was 8.07. For the same substance, the “negative log10 GI50” value (SF-268) was 7.55, the “negative log10 GI50” value (M14) was 8.92 and the “negative log10 GI50” value (NCI-H226) was 8.80. The “negative log10 GI50” value (NCI-H460) was 9.01, the “negative log10 GI50” value (SNB-19) was 6.47 and the “negative log10 GI50” value (BT-549) was 9.30. For the same substance, the “negative log10 GI50” value (IGROVI) was 7.89, the “negative log10 GI50” value (A549/ATCC) was 8.54 and the “negative log10 GI50” value (U251) was 7.57. For the same substance, the “negative log10 GI50” value (PC-3) was 7.51, the “negative log10 GI50” value (MCF-7-ADR-RES) was 8.07 and the “negative log10 GI50” value (LOX-IMVI) was 9.11. For the same substance, the GI50 ([1]; mean over the NCI 60 cell-line panel, read-out: mean panel GI50 concentration) was about 15 nM, the “range of differential sensitivity among the 60 cell-lines” value ([1]; most vs least sensitive lines of the NCI panel) was “greater than or equal to 10^3” and the “negative log10 GI50” value (HCC-2998) was 6.74. The “negative log10 GI50” value (K-562) was 8.41, the “negative log10 GI50” value (ACHN) was 8.01 and the “negative log10 GI50” value (HS-578T) was 5.85. For the same substance, the “negative log10 GI50” value (CCRF-CEM) was 7.89, the “negative log10 GI50” value (RPMI-8226) was 7.89 and the “negative log10 GI50” value (KM12) was 8.30. For the same substance, the “negative log10 GI50” value (HT29) was 8.54.
